T/C data for 17 compounds are collected here from PubChem BioAssay AID330 (DTP/NCI, 2004).

Each structure is given as a SMILES string. “And” between values parts separate entries of the source, which are not always exact repeats. Identical values can stand only once. Inconclusive results and toxic doses are left out.

The test deals with P388 leukemia ip, CD2F1 mice, survival T/C. Put plainly: NCI In Vivo Anticancer Drug Screen. Data for tumor model P388 Leukemia (intraperitoneal) in CD2F1 (CDF1) mice. To be noted: endpoint: median survival time, higher = longer survival. A digest of the protocol: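 Mice carrying the transplanted tumor received test compound or vehicle. Survival was recorded in each group, and the value is the treated-group measurement divided by that of the vehicle-treated control group.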

[1] abbreviates: dose: 100.0 mg/kg/injection, schedule: Q01DX009 (ip), vehicle: saline with Tween-80.
Setting [2] is: dose: 200.0 mg/kg/injection, schedule: Q01DX009 (ip), vehicle: saline with Tween-80.
[3] abbreviates: dose: 50.0 mg/kg/injection, schedule: Q01DX009 (ip), vehicle: saline with Tween-80.
[4] abbreviates: dose: 60.0 mg/kg/injection, schedule: Q01DX005 (ip), vehicle: saline with Tween-80.

`O=C(NC(CO)C(O)c1ccc(N=Nc2cccc3ccccc23)cc1)C(Cl)Cl` (configuration not stated): the T/C reads like this: under setting [1], 95 % of control; under setting [2], 104 % of control; (dose: 400.0 mg/kg/injection, schedule: Q01DX009 (ip), vehicle: saline with Tween-80) 104 % of control.

On to `Clc1ccc([Si]23OCCN(CCO2)CCO3)cc1`, for which the T/C was 93 % of control (dose: 0.19 mg/kg/injection, schedule: Q01DX009 (ip), vehicle: Klucel (hydroxypropylcellulose) (HPC)); 99 % of control (dose: 0.39 mg/kg/injection, schedule: Q01DX009 (ip), vehicle: Klucel (hydroxypropylcellulose) (HPC)); 108 % of control (dose: 0.78 mg/kg/injection, schedule: Q01DX009 (ip), vehicle: Klucel (hydroxypropylcellulose) (HPC)).

In the case of `CCCC(=O)O.CCCC(=O)O.CCCC(=O)O.CCCC(=O)O.O=P1(N(CCCl)CCCl)NCCCO1.O=P1(N(CCCl)CCCl)NCCCO1.[Rh].[Rh]` (configuration not stated), the T/C (dose: 0.13 mg/kg/injection, schedule: Q01DX009 (ip), vehicle: olive oil, sesame oil, peanut oil) was 103 % of control; the T/C (dose: 0.25 mg/kg/injection, schedule: Q01DX009 (ip), vehicle: olive oil, sesame oil, peanut oil) was 112 % of control; the T/C (dose: 0.5 mg/kg/injection, schedule: Q01DX009 (ip), vehicle: olive oil, sesame oil, peanut oil) was 101 % of control; the T/C (dose: 1.0 mg/kg/injection, schedule: Q01DX009 (ip), vehicle: olive oil, sesame oil, peanut oil) is 117 % of control.

With `CS(=O)(=O)C#CCCCCCCC#CS(C)(=O)=O`, the T/C by setting is: (dose: 6.25 mg/kg/injection, schedule: Q04DX002 (ip), vehicle: saline) 104 % of control; (dose: 12.5 mg/kg/injection, schedule: Q04DX002 (ip), vehicle: saline) 97 % of control; (dose: 25.0 mg/kg/injection, schedule: Q04DX002 (ip), vehicle: saline) 102 % of control.

In the case of `S=C(S)n1nc(-c2ccccc2)c(N=Nc2cccc(Cl)c2)c1-c1ccccc1`, the T/C is, setting by setting: (dose: 100.0 mg/kg/injection, schedule: Q01DX001 (ip), vehicle: saline with Tween-80) 91 % of control; (dose: 200.0 mg/kg/injection, schedule: Q01DX001 (ip), vehicle: saline with Tween-80) 91 % of control; (dose: 400.0 mg/kg/injection, schedule: Q01DX001 (ip), vehicle: saline with Tween-80) 113 % of control.

Regarding `CCO[Si](O[Si](OCC)(c1ccccc1)c1ccccc1)(c1ccccc1)c1ccccc1`, the T/C (dose: 50.0 mg/kg/injection, schedule: Q01DX009 (ip), vehicle: saline) is 93 % of control; the T/C (dose: 100.0 mg/kg/injection, schedule: Q01DX009 (ip), vehicle: saline) was 102 % of control; the T/C (dose: 200.0 mg/kg/injection, schedule: Q01DX009 (ip), vehicle: saline) was 91 % of control.

`CCCCCCCC/C=C/CC1CCCC(C)N1` (configuration not stated) (tested in a mixture with another compound): the T/C by setting is: (dose: 7.5 mg/kg/injection, schedule: Q01DX005 (ip), vehicle: saline with Tween-80) 100 % of control; (dose: 15.0 mg/kg/injection, schedule: Q01DX005 (ip), vehicle: saline with Tween-80) 100 % of control; (dose: 30.0 mg/kg/injection, schedule: Q01DX005 (ip), vehicle: saline with Tween-80) 98 % of control and 102 % of control.

As to `O=C(N/N=C/c1ccccc1O)c1ccccc1-n1cccc1`, the T/C is, setting by setting: under setting [3], 95 % of control; under setting [1], 104 % of control; under setting [2], 94 % of control.

Regarding `CCc1cccc(CC)c1NC(=O)NN(CC)CC`, the T/C runs as follows: under setting [4], 93 % of control; (dose: 120.0 mg/kg/injection, schedule: Q01DX005 (ip), vehicle: saline with Tween-80) 103 % of control.

`Cc1c([O-])on[n+]1Cc1ccccc1`: under setting [4], the T/C is 102 % of control.

For the compound `CCN(c1ccccc1C(=O)O)S(=O)(=O)c1ccc(C)cc1`, the T/C was 104 % of control (dose: 50.0 mg/kg/injection, schedule: Q01DX005 (ip), vehicle: Klucel (hydroxypropylcellulose) (HPC)) and 106 % of control (dose: 100.0 mg/kg/injection, schedule: Q01DX005 (ip), vehicle: Klucel (hydroxypropylcellulose) (HPC)).

`COc1cccc2c1C(=O)c1c(O)c3c(c(O)c1C2=O)CC(O)(C(O)CO)CC3OC1CC(N2CCSCC2)C(O)C(C)O1` (configuration not stated): the T/C is, setting by setting: (dose: 3.12 mg/kg/injection, schedule: Q04DX003 (ip), vehicle: saline) 103 % of control; (dose: 6.25 mg/kg/injection, schedule: Q04DX003 (ip), vehicle: saline) 110 % of control; (dose: 12.5 mg/kg/injection, schedule: Q04DX003 (ip), vehicle: saline) 110 % of control and 112 % of control; (dose: 25.0 mg/kg/injection, schedule: Q04DX003 (ip), vehicle: saline) 122 % of control; (dose: 100.0 mg/kg/injection, schedule: Q04DX003 (ip), vehicle: saline) 122 % of control.

In the case of `COC1C(O)C(C)OC(OC2C(Oc3cccc4c(O)c5c(=O)oc6ccc(C)c7c(=O)oc(c34)c5c67)OC(C)C(O)C2O)C1O` (configuration not stated), the T/C (dose: 0.5 mg/kg/injection, schedule: Q01DX009 (ip), vehicle: saline with Tween-80) was 108 % of control; the T/C (dose: 4.0 mg/kg/injection, schedule: Q01DX009 (ip), vehicle: saline with Tween-80) was 157 % of control; the T/C (dose: 6.25 mg/kg/injection, schedule: Q01DX009 (ip), vehicle: saline with Tween-80) was 152 % of control; the T/C (dose: 12.5 mg/kg/injection, schedule: Q01DX001 (sc), vehicle: Klucel (hydroxypropylcellulose) (HPC)) was 100 % of control; the T/C (dose: 12.5 mg/kg/injection, schedule: Q01DX001 (sc), vehicle: other) was 97 % of control; the T/C (dose: 12.5 mg/kg/injection, schedule: Q01DX005 (sc), vehicle: Klucel (hydroxypropylcellulose) (HPC)) was 98 % of control. Moreover, the T/C is 101 % of control (dose: 12.5 mg/kg/injection, schedule: Q01DX005 (sc), vehicle: other); 164 % of control (dose: 12.5 mg/kg/injection, schedule: Q01DX009 (ip), vehicle: saline with Tween-80); 102 % of control (dose: 25.0 mg/kg/injection, schedule: Q01DX001 (sc), vehicle: Klucel (hydroxypropylcellulose) (HPC)); 100 % of control (dose: 25.0 mg/kg/injection, schedule: Q01DX001 (sc), vehicle: other); 97 % of control (dose: 25.0 mg/kg/injection, schedule: Q01DX005 (sc), vehicle: Klucel (hydroxypropylcellulose) (HPC)); 92 % of control (dose: 25.0 mg/kg/injection, schedule: Q01DX005 (sc), vehicle: other). In addition, the T/C is 174 % of control (dose: 25.0 mg/kg/injection, schedule: Q01DX009 (ip), vehicle: saline with Tween-80); 98 % of control (dose: 50.0 mg/kg/injection, schedule: Q01DX001 (sc), vehicle: Klucel (hydroxypropylcellulose) (HPC)); 109 % of control (dose: 50.0 mg/kg/injection, schedule: Q01DX001 (sc), vehicle: other); 100 % of control (dose: 50.0 mg/kg/injection, schedule: Q01DX005 (sc), vehicle: Klucel (hydroxypropylcellulose) (HPC)); 98 % of control (dose: 50.0 mg/kg/injection, schedule: Q01DX005 (sc), vehicle: other); 183 % of control under setting [3]. In addition, the T/C under setting [1] was 171 % of control.

Take `O=c1[nH]c2c(c(=O)[nH]1)CCCCCC2`: the T/C is, setting by setting: (dose: 25.0 mg/kg/injection, schedule: Q01DX009 (ip), vehicle: Klucel (hydroxypropylcellulose) (HPC)) 102 % of control and 103 % of control; (dose: 50.0 mg/kg/injection, schedule: Q01DX009 (ip), vehicle: Klucel (hydroxypropylcellulose) (HPC)) 99 % of control and 103 % of control; (dose: 100.0 mg/kg/injection, schedule: Q01DX009 (ip), vehicle: Klucel (hydroxypropylcellulose) (HPC)) 91 % of control and 97 % of control; (dose: 200.0 mg/kg/injection, schedule: Q01DX009 (ip), vehicle: Klucel (hydroxypropylcellulose) (HPC)) 102 % of control and 94 % of control.

Take `Cn1cccc1C(C=C(c1ccccc1)c1ccccc1)c1cccn1C`: the T/C runs as follows: (dose: 12.5 mg/kg/injection, schedule: Q01DX005 (ip), vehicle: saline with Tween-80) 113 % of control; (dose: 25.0 mg/kg/injection, schedule: Q01DX005 (ip), vehicle: saline with Tween-80) 114 % of control; (dose: 50.0 mg/kg/injection, schedule: Q01DX005 (ip), vehicle: saline with Tween-80) 104 % of control and 88 % of control.

For the compound `COc1ccc([I+]c2ccccc2)cc1`, the T/C (dose: 1.5 mg/kg/injection, schedule: Q01DX009 (ip), vehicle: saline) is 109 % of control; the T/C (dose: 2.5 mg/kg/injection, schedule: Q01DX009 (ip), vehicle: saline sonified) was 100 % of control; the T/C (dose: 3.0 mg/kg/injection, schedule: Q01DX009 (ip), vehicle: saline) was 109 % of control; the T/C (dose: 6.0 mg/kg/injection, schedule: Q01DX009 (ip), vehicle: saline) is 122 % of control.

As for `CNC(C)(C(=O)O)C(=O)Nc1ccccc1` (configuration not stated), the T/C runs as follows: (dose: 100.0 mg/kg/injection, schedule: Q01DX001 (ip), vehicle: saline) 112 % of control; (dose: 200.0 mg/kg/injection, schedule: Q01DX001 (ip), vehicle: saline) 123 % of control.
